Measurements taken from PubChem BioAssay AID1259407 (Chemical Carcinogenesis Research Information System (CCRIS), 2018).
Calls of active or inactive are those of the source. How the calls were made is not given here.

Tested on: CCRIS mutagenicity, Ames/micronucleus/aberration tests
Experiment: CCRIS mutagenicity studies

Q: How did the mutagenic call (End Point: IN VITRO MICRONUCLEUS, Test System: CHL/IU CELLS, Metabolic Activation: RAT, LIVER, S-9, PHENOBARBITAL AND 5,6-BENZOFLAVONE) turn out when `CCOC(N)=O` was run?
A: inactive; negative

Q: What about the mutagenic call (End Point: IN VITRO MICRONUCLEUS, Test System: V79 CELLS, Metabolic Activation: NONE) of the same compound?
A: inactive; negative

Q: What about the mutagenic call (End Point: IN VIVO MICRONUCLEUS, Test System: BLOOD PERIPHERAL POLYCHROMATIC AND NORMOCHROMATIC ERYTHROCYTES, Species: MICE, Strain/Sex: CYP2E1+/+ WILD TYPE/MALE, Route: ORAL (GAVAGE)) of the same compound?
A: active; positive for both types of cells

Q: And the mutagenic call (End Point: IN VIVO MICRONUCLEUS, Test System: BLOOD PERIPHERAL POLYCHROMATIC AND NORMOCHROMATIC ERYTHROCYTES, Species: MOUSE, Strain/Sex: CYP2E1-/- KO (KNOCKOUT)/MALE, Route: ORAL (GAVAGE))?
A: inactive; negative for nce; equivocal for pce

Q: What about the mutagenic call (End Point: IN VIVO MICRONUCLEUS, Test System: ERYTHROCYTES, Species: MOUSE, Strain/Sex: WILD-TYPE (CYP2E1+/+, WT)/MALE, Route: GAVAGE) of the same compound?
A: active; positive; significant dose-dependent increase in both polychromatic and normochr

Q: And the mutagenic call (End Point: IN VIVO MICRONUCLEUS, Test System: PERIPHERAL BLOOD ERYTHROCYTES, Species: MOUSE, Strain/Sex: KNOCK OUT (CYP2E1-/-, KO)/MALE, Route: GAVAGE)?
A: inactive; negative (normochromatic erythrocytes); authors described results in polychromat

Q: And the mutagenic call (Test System: AMES SALMONELLA TYPHIMURIUM, Strain/Indicator: TA97, Metabolic Activation: HAMSTER, LIVER, S-9, AROCLOR 1254 (30%), Method: PREINCUBATION)?
A: inactive; negative

Q: And the mutagenic call (Test System: AMES SALMONELLA TYPHIMURIUM, Strain/Indicator: TA97, Metabolic Activation: NONE, Method: PREINCUBATION)?
A: inactive; negative

Q: What about the mutagenic call (Test System: AMES SALMONELLA TYPHIMURIUM, Strain/Indicator: TA97, Metabolic Activation: RAT, LIVER, S-9, AROCLOR 1254 (30%), Method: PREINCUBATION) of the same compound?
A: inactive; negative

Q: And the mutagenic call (Test System: AMES SALMONELLA TYPHIMURIUM, Strain/Indicator: TA98, Metabolic Activation: HAMSTER, LIVER, S-9, AROCLOR 1254 (30%), Method: PREINCUBATION)?
A: inactive; negative

Q: What about the mutagenic call (Test System: AMES SALMONELLA TYPHIMURIUM, Strain/Indicator: TA98, Metabolic Activation: NONE, Method: PREINCUBATION) of the same compound?
A: inactive; negative

Q: What about the mutagenic call (Test System: AMES SALMONELLA TYPHIMURIUM, Strain/Indicator: TA98, Metabolic Activation: RAT LIVER S-9, AROCLOR 1254, Method: PREINCUBATION) of the same compound?
A: inactive; negative

Q: And the mutagenic call (Test System: AMES SALMONELLA TYPHIMURIUM, Strain/Indicator: TA98, Metabolic Activation: RAT, LIVER, S-9, AROCLOR 1254 (30%), Method: PREINCUBATION)?
A: inactive; negative

Q: And the mutagenic call (Test System: AMES SALMONELLA TYPHIMURIUM, Strain/Indicator: TA98, Metabolic Activation: RAT, LIVER, S-9, ETHANOL, Method: PREINCUBATION)?
A: inactive; negative

Q: What about the mutagenic call (Test System: AMES SALMONELLA TYPHIMURIUM, Strain/Indicator: TA98, Metabolic Activation: RAT, LIVER, S-9, PYRAZOLE, Method: PREINCUBATION) of the same compound?
A: inactive; negative

Q: What about the mutagenic call (Test System: AMES SALMONELLA TYPHIMURIUM, Strain/Indicator: TA98, Metabolic Activation: RAT, LIVER, S-9, Method: STANDARD PLATE) of the same compound?
A: inactive; negative

Q: And the mutagenic call (Test System: AMES SALMONELLA TYPHIMURIUM, Strain/Indicator: TA100, Metabolic Activation: HAMSTER, LIVER, S-9, AROCLOR 1254 (5, 10 OR 30%), Method: PREINCUBATION)?
A: inactive; negative

Q: What about the mutagenic call (Test System: AMES SALMONELLA TYPHIMURIUM, Strain/Indicator: TA100, Metabolic Activation: NONE, Method: PREINCUBATION) of the same compound?
A: inactive; negative

Q: And the mutagenic call (Test System: AMES SALMONELLA TYPHIMURIUM, Strain/Indicator: TA100, Metabolic Activation: RAT LIVER S-9, AROCLOR 1254, Method: PREINCUBATION)?
A: inactive; negative

Q: What about the mutagenic call (Test System: AMES SALMONELLA TYPHIMURIUM, Strain/Indicator: TA100, Metabolic Activation: RAT, LIVER, S-9, AROCLOR 1254 (5, 10 OR 30%), Method: PREINCUBATION) of the same compound?
A: inactive; negative

Q: What about the mutagenic call (Test System: AMES SALMONELLA TYPHIMURIUM, Strain/Indicator: TA100, Metabolic Activation: RAT, LIVER, S-9, ETHANOL, Method: PREINCUBATION) of the same compound?
A: inactive; negative

Q: And the mutagenic call (Test System: AMES SALMONELLA TYPHIMURIUM, Strain/Indicator: TA100, Metabolic Activation: RAT, LIVER, S-9, PYRAZOLE, Method: PREINCUBATION)?
A: inactive; negative

Q: What about the mutagenic call (Test System: AMES SALMONELLA TYPHIMURIUM, Strain/Indicator: TA100, Metabolic Activation: RAT, LIVER, S-9, Method: STANDARD PLATE) of the same compound?
A: inactive; negative

Q: And the mutagenic call (Test System: AMES SALMONELLA TYPHIMURIUM, Strain/Indicator: TA102, Metabolic Activation: NONE, Method: PREINCUBATION)?
A: inactive; negative

Q: What about the mutagenic call (Test System: AMES SALMONELLA TYPHIMURIUM, Strain/Indicator: TA102, Metabolic Activation: RAT LIVER S-9, AROCLOR 1254, Method: PREINCUBATION) of the same compound?
A: inactive; negative

Q: And the mutagenic call (Test System: AMES SALMONELLA TYPHIMURIUM, Strain/Indicator: TA102, Metabolic Activation: RAT LIVER S-9, PHENOBARBITAL AND 5,6-BENZOFLAVONE, Method: STANDARD PLATE)?
A: inactive; negative

Q: What about the mutagenic call (Test System: AMES SALMONELLA TYPHIMURIUM, Strain/Indicator: TA102, Metabolic Activation: RAT, LIVER, S-9, ETHANOL, Method: PREINCUBATION) of the same compound?
A: inactive; negative

Q: What about the mutagenic call (Test System: AMES SALMONELLA TYPHIMURIUM, Strain/Indicator: TA102, Metabolic Activation: RAT, LIVER, S-9, PYRAZOLE, Method: PREINCUBATION) of the same compound?
A: inactive; negative

Q: What about the mutagenic call (Test System: AMES SALMONELLA TYPHIMURIUM, Strain/Indicator: TA1535, Metabolic Activation: HAMSTER, LIVER, S-9, AROCLOR 1254 (30%), Method: PREINCUBATION) of the same compound?
A: active; positive

Q: And the mutagenic call (Test System: AMES SALMONELLA TYPHIMURIUM, Strain/Indicator: TA1535, Metabolic Activation: NONE, Method: PREINCUBATION)?
A: inactive; negative

Q: What about the mutagenic call (Test System: AMES SALMONELLA TYPHIMURIUM, Strain/Indicator: TA1535, Metabolic Activation: RAT, LIVER, S-9, AROCLOR 1254 (5 OR 10%), Method: PREINCUBATION) of the same compound?
A: inactive; negative

Q: And the mutagenic call (Test System: AMES SALMONELLA TYPHIMURIUM, Strain/Indicator: TA1535, Metabolic Activation: RAT, LIVER, S-9, AROCLOR 1254 (30%), Method: PREINCUBATION)?
A: inactive; negative

Q: What about the mutagenic call (Test System: AMES SALMONELLA TYPHIMURIUM, Strain/Indicator: TA1535, Metabolic Activation: RAT, LIVER, S-9, ETHANOL, Method: PREINCUBATION) of the same compound?
A: inactive; negative

Q: What about the mutagenic call (Test System: AMES SALMONELLA TYPHIMURIUM, Strain/Indicator: TA1535, Metabolic Activation: RAT, LIVER, S-9, PYRAZOLE, Method: PREINCUBATION) of the same compound?
A: inactive; negative

Q: And the mutagenic call (Test System: AMES SALMONELLA TYPHIMURIUM, Strain/Indicator: TA1537, Metabolic Activation: HAMSTER, LIVER, S-9, AROCLOR 1254 (30%), Method: PREINCUBATION)?
A: inactive; negative

Q: What about the mutagenic call (Test System: AMES SALMONELLA TYPHIMURIUM, Strain/Indicator: TA1537, Metabolic Activation: NONE, Method: PREINCUBATION) of the same compound?
A: inactive; negative

Q: What about the mutagenic call (Test System: AMES SALMONELLA TYPHIMURIUM, Strain/Indicator: TA1537, Metabolic Activation: RAT, LIVER, S-9, AROCLOR 1254 (30%), Method: PREINCUBATION) of the same compound?
A: inactive; negative

Q: And the mutagenic call (Test System: AMES SALMONELLA TYPHIMURIUM, Strain/Indicator: TA1537, Metabolic Activation: RAT, LIVER, S-9, PYRAZOLE, Method: PREINCUBATION)?
A: inactive; negative

Q: And the mutagenic call (Test System: AMES SALMONELLA TYPHIMURIUM, Strain/Indicator: TA2638, Metabolic Activation: RAT LIVER S-9, PHENOBARBITAL AND 5,6-BENZOFLAVONE, Method: STANDARD PLATE)?
A: inactive; negative

Q: And the mutagenic call (Test System: Ames Salmonella typhimurium, Strain/Indicator: YG7108pin3ERb5, Metabolic Activation: None, Method: Standard plate)?
A: inactive; negative

Q: And the mutagenic call (Test System: E. COLI, Strain/Indicator: WP2 (PKM101), Metabolic Activation: RAT LIVER S-9, PHENOBARBITAL AND 5,6-BENZOFLAVONE, Method: STANDARD PLATE)?
A: inactive; negative

Q: What about the mutagenic call (Test System: E. COLI, Strain/Indicator: WP2 UVRA (PKM101), Metabolic Activation: RAT LIVER S-9, PHENOBARBITAL AND 5,6-BENZOFLAVONE, Method: STANDARD PLATE) of the same compound?
A: inactive; negative

Q: What about the mutagenic call (Test System: E. COLI, Strain/Indicator: WP2 UVRA, Metabolic Activation: NONE, Method: FLUCTUATION TEST) of the same compound?
A: inactive; negative

Q: What about the mutagenic call (Test System: MOUSE LYMPHOMA, Strain/Indicator: L5178Y (TK+/TK-), Metabolic Activation: NONE, Method: MICROWELL) of the same compound?
A: inactive; negative

Q: What about the mutagenic call (Test System: MOUSE LYMPHOMA, Strain/Indicator: L5178Y (TK+/TK-), Metabolic Activation: S-9, Method: MICROWELL) of the same compound?
A: inactive; negative

Q: And the mutagenic call (Test System: UDS MOUSE SPERMATIDS, Strain/Indicator: THY INCORP, Metabolic Activation: NONE)?
A: active; positive
